{"source": "patent US12465590B2", "about": "“Oxalamido-substituted tricyclic inhibitors of hepatitis b virus” (priority 2019, dated 2025)", "details_in_all_cases": "Hepatitis B virus, HepG2, read-out: EC50 ± StD (nM)", "key": {"HBV genotype A2": {"system": "HBV genotype A2", "assay": "Antiviral effect on HBV genotypes, transiently transfected HepG2 cells", "type": "cell-based", "text": "(§1) HepG2 cell line was used for HBV genotypes and core variants inhibition assays. HepG2 cell line is maintained in DMEM supplemented with 10% of fetal bovine serum, 1% of glutamine and 1% of penicillin/streptomycin.\n(§2) For antiviral effect on HBV A-E genotypes, HepG2 cell line and DNA plasmids expressing HBV genome of different genotypes, from A to E, were used. HepG2 were transiently transfected with plasmid DNA harboring 1.1-mer-overlength genomic sequences of each HBV genotypes A to E isolates cloned into the pcDNA3.1/Zeo(−) vector as described in J Virol. 2010, 84, 3879-88 (https://doi.org/10.1128/JVI.02528-09). Each plasmid contains the 1.1×HBV genome under the control of a CMV promoter. The list of plasmid used is the following: pcDNA3.1-HBV1.1-A2 (HBV genotype A2), pcDNA3.1-HBV1.1—B2 (HBV genotype B2), pcDNA3.1-HBV1.1—C2 (HBV genotype C2), pcDNA3.1-HBV1.1-D (described as p26 in the above reference, HBV genotype D), pcDNA3.1-HBV1.1-E (HBV genotype E). Methods of generating plasmids are well know in the art (as for example in Viruses 2020, 12, 353, doi:10.3390/v12030353; Antiviral Research 144 (2017) 205-215, http://dx.doi.org/10.1016/j.antiviral.2017.06.016) and the selection of a suitable method is not a limitation on the present invention.\n(§3) HepG2 cells were seeded in polylysine coated 96 multiwell plates at a density of 2*10^4 cells/well and incubated overnight at 37° C. The following day cells were transfected with the HBV plasmids (100 ng/well) using the Lipofectamine 3000 Reagent (Thermo Fisher Scientific) and following manufacturer instructions. After 5 h transfection mixtures were removed and cells were treated with serially diluted compounds in 0.5% DMSO at 8-point dose-response as previously described. After 96 hours of incubation at 37° C. with compound the supernatants were collected, centrifuged for cell debris clarification and incubated with DNase I amplification grade 1 Unit/50 μl (Sigma) for 1 h at 37° C. to allow plasmid input digestion. Quantification of extracellular HBV DNA with direct qPCR was performed as previously described. To avoid unspecific detection of HBV plasmid and to confirm plasmid digestion, specific primers designed across plasmid backbone and HBV sequence were added as controls (HBV-CNT-gt-F:5′-[…]-3′ (SEQ ID No. 3), HBV-CNT-gt-R:5′-[…]-3′(SEQ ID No. 4)). Antiviral activity data for each genotype are reported as EC50 mean value. Moreover the EC50 shift value is indicated, corresponding to the ratio between the observed EC50 and the EC50 for genotype D, which is used as reference genotype (see RESULTS, Table 2 legend). Excel and Graphpad Prism programs are typically used for data elaboration and EC50 calculation."}, "HBV genotype B2": {"system": "HBV genotype B2", "assay": "Antiviral effect on HBV genotypes, transiently transfected HepG2 cells", "type": "cell-based", "text": "as §1, §2, §3"}, "HBV genotype C2": {"system": "HBV genotype C2", "assay": "Antiviral effect on HBV genotypes, transiently transfected HepG2 cells", "type": "cell-based", "text": "as §1, §2, §3"}, "HBV genotype D": {"system": "HBV genotype D", "assay": "Antiviral effect on HBV genotypes, transiently transfected HepG2 cells", "type": "cell-based", "text": "as §1, §2, §3"}, "HBV genotype E": {"system": "HBV genotype E", "assay": "Antiviral effect on HBV genotypes, transiently transfected HepG2 cells", "type": "cell-based", "text": "as §1, §2, §3"}, "[1]": {"system": "HBV core protein variant F110I", "assay": "Antiviral effect against core variants, transfected HepG2 cells", "type": "cell-based, HBV genotype D", "method": "as §1, §3\n(§4) The experimental procedure for antiviral effect against HBV core protein variants was similar to the one previously described for antiviral effect on HBV A-E Genotypes. Different core point mutations (F23Y, F110I, I105T, L37Q, T33N, T33P, T128I, V124G, Y118F) were selected based on their ability to reduce potency of CAMs currently in development (literature data) and introduced in the plasmids containing the HBV genome of genotype D (pcDNA3.1-HBV1.1-D, described above). The following list of plasmids was generated by site-directed mutagenesis of the parent plasmid pcDNA3.1-HBV1.1-D (p26 in J Virol. 2010, 84, 3879-88): pcDNA3.1-HBV1.1-D-CoreF23Y, pcDNA3.1-HBV1.1-D-CoreF110I, pcDNA3.1-HBV1.1-D-Core 1105 T, pcDNA3.1-HBV1.1-D-CoreL37Q, pcDNA3.1-HBV1.1-D-CoreT33N, pcDNA3.1-HBV1.1-D-CoreT33P, pcDNA3.1-HBV1.1-D-CoreT128I, pcDNA3.1-HBV1.1-D-CoreV124G, pcDNA3.1-HBV1.1-D-CoreY118F (point mutations in the nucleotide codon relative to the indicated core aminoacid substitution are the followings: TTC/TAC for F23Y, TTT/ATT for F110I, ATT/ACT for I105T, CTG/CAG for L37Q, ACC/AAC for T33N, ACC/CCC for T33P, ACT/ATT for T128I, GTG/GGG for V124G, TAT/TTT for Y118F). Antiviral activity data for each variant are reported as EC50 mean value and EC50 shift compared to wild type (see RESULTS, Table 4 legend). Excel and Graphpad Prism programs are typically used for data elaboration and EC50 calculation."}, "[2]": {"system": "HBV core protein variant F23Y", "assay": "Antiviral effect against core variants, transfected HepG2 cells", "type": "cell-based, HBV genotype D", "method": "as §1, §3, §4"}, "[3]": {"system": "HBV core protein variant I105T", "assay": "Antiviral effect against core variants, transfected HepG2 cells", "type": "cell-based, HBV genotype D", "method": "as §1, §3, §4"}, "[4]": {"system": "HBV core protein variant L37Q", "assay": "Antiviral effect against core variants, transfected HepG2 cells", "type": "cell-based, HBV genotype D", "method": "as §1, §3, §4"}, "[5]": {"system": "HBV core protein variant T128I", "assay": "Antiviral effect against core variants, transfected HepG2 cells", "type": "cell-based, HBV genotype D", "method": "as §1, §3, §4"}, "[6]": {"system": "HBV core protein variant T33N", "assay": "Antiviral effect against core variants, transfected HepG2 cells", "type": "cell-based, HBV genotype D", "method": "as §1, §3, §4"}, "[7]": {"system": "HBV core protein variant T33P", "assay": "Antiviral effect against core variants, transfected HepG2 cells", "type": "cell-based, HBV genotype D", "method": "as §1, §3, §4"}, "[8]": {"system": "HBV core protein variant V124G", "assay": "Antiviral effect against core variants, transfected HepG2 cells", "type": "cell-based, HBV genotype D", "method": "as §1, §3, §4"}, "[9]": {"system": "HBV core protein variant Y118F", "assay": "Antiviral effect against core variants, transfected HepG2 cells", "type": "cell-based, HBV genotype D", "method": "as §1, §3, §4"}}, "data": [{"smiles": "Cc1cc(NC(=O)c2c3c(cn2C)S(=O)(=O)N[C@H]2CN(C(=O)C(=O)N[C@@H](C)C(F)(F)F)C[C@H]2CO3)ccc1F", "note": "[Example E15, (3aR,10aR)—N-(4-fluoro-3-methylphenyl)-7-methyl-2-(2-oxo-2-(((S)-1,1,1-trifluoropropan-2-yl)amino)acetyl)-2,3,3a,4,10,10a-hexahydro-1H,7H-dipyrrolo[3,4-b:3′,4′-f][1,4,5]oxathiazocine-8-carboxamide 5,5-dioxide]", "values": [{"measurement": "EC50", "setting": "HBV genotype A2", "value": "2.14 ± 0.43", "unit": "nM"}, {"measurement": "EC50", "setting": "HBV genotype B2", "value": "1.58 ± 0.7", "unit": "nM"}, {"measurement": "EC50", "setting": "HBV genotype C2", "value": "0.72 ± 0.55", "unit": "nM"}, {"measurement": "EC50", "setting": "HBV genotype D", "value": "0.94 ± 0.49", "unit": "nM"}, {"measurement": "EC50", "setting": "HBV genotype E", "value": "1.79 ± 1.08", "unit": "nM"}, {"measurement": "EC50", "setting": "[1]", "value": "1.12 ± 0.3", "unit": "nM"}, {"measurement": "EC50", "setting": "[2]", "value": "6.33 ± 0.94", "unit": "nM"}, {"measurement": "EC50", "setting": "[3]", "value": "3.22 ± 1.45", "unit": "nM"}, {"measurement": "EC50", "setting": "[4]", "value": "8.72 ± 3.76", "unit": "nM"}, {"measurement": "EC50", "setting": "[5]", "value": "8.91 ± 5.85", "unit": "nM"}, {"measurement": "EC50", "setting": "[6]", "value": "46.9 ± 21.1", "unit": "nM"}, {"measurement": "EC50", "setting": "[7]", "value": "1.68 ± 0.37", "unit": "nM"}, {"measurement": "EC50", "setting": "[8]", "value": "6.8 ± 2.08", "unit": "nM"}, {"measurement": "EC50", "setting": "[9]", "value": "6.37 ± 1.84", "unit": "nM"}]}]}
